From ChEMBL document CHEMBL1201862, “PubChem BioAssay data set” (2004)
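Grown in 96-well plates, cells were treated for 48 hours with each compound at five concentrations. Insufficient inhibition: endpoint recorded as highest concentration tested. At the GI50, growth is halved.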 Calls of active or inactive are those of the source. Rule as the data show it: active = GI50 up to about 1.1 µM and inactive = higher.

How the values were obtained:
Assay in all cases: NCI anticancer screen, dose series, 48 h
786-0 = tested on: 786-0
EKVX = tested on: EKVX
HCT-116 = tested on: HCT-116
HCT-15 = tested on: HCT-15
HOP-92 = tested on: HOP-92
HT-29 = tested on: HT-29
LOX IMVI = tested on: LOX IMVI
MCF7 = tested on: MCF7
MDA-MB-231 = tested on: MDA-MB-231
Malme-3M = tested on: Malme-3M
NCI-H460 = tested on: NCI-H460
NCI/ADR-RES = tested on: NCI/ADR-RES
OVCAR-3 = tested on: OVCAR-3
SK-MEL-5 = tested on: SK-MEL-5
SNB-19 = tested on: SNB-19
SNB-75 = tested on: SNB-75
UACC-62 = tested on: UACC-62
SF-539 = tested on: SF-539
UACC-257 = tested on: UACC-257
HCC 2998 = tested on: HCC 2998

| SMILES | GI50 (786-0) | GI50 (EKVX) | GI50 (HCT-116) | GI50 (HCT-15) [µM] | GI50 (HOP-92) | GI50 (HT-29) | GI50 (LOX IMVI) | GI50 (MCF7) | GI50 (MDA-MB-231) | GI50 (Malme-3M) | GI50 (NCI-H460) | GI50 (NCI/ADR-RES) | GI50 (OVCAR-3) | GI50 (SK-MEL-5) | GI50 (SNB-19) | GI50 (SNB-75) | GI50 (UACC-62) | GI50 (SF-539) | GI50 (UACC-257) | GI50 (HCC 2998) |
| --- | --- | --- | --- | --- | --- | --- | --- | --- | --- | --- | --- | --- | --- | --- | --- | --- | --- | --- | --- | --- |
| O=S(=O)(Nc1nccs1)c1ccc([As](=O)(O)O)cc1 | > 100 µM (inactive) | > 100 µM (inactive) | > 100 µM (inactive) | > 100 | > 100 µM (inactive) | > 100 µM (inactive) | > 100 µM (inactive) | > 100 µM (inactive) | > 100 µM (inactive) | > 100 µM (inactive) | > 100 µM (inactive) | > 100 µM (inactive) | > 100 µM (inactive) | > 100 µM (inactive) | > 100 µM (inactive) | > 100 µM (inactive) | > 100 µM (inactive) | – | – | – |
| Cc1ccc(/N=N/c2c(O)c3ccccc3[nH]c2=O)c(S(=O)(=O)N(C)C)c1 | > 100 µM (inactive) | > 100 µM (inactive) | > 100 µM (inactive) | > 100 | > 100 µM (inactive) | > 100 µM (inactive) | > 100 µM (inactive) | > 100 µM (inactive) | > 100 µM (inactive) | > 100 µM (inactive) | > 100 µM (inactive) | > 100 µM (inactive) | > 100 µM (inactive) | > 100 µM (inactive) | > 100 µM (inactive) | > 100 µM (inactive) | > 100 µM (inactive) | > 100 µM (inactive) | > 100 µM (inactive) | – |
| CC(=O)NC(C)(C)C1CCC(C)CC1 (stereo not given) | > 100 µM (inactive) | > 100 µM (inactive) | > 100 µM (inactive) | > 100 | – | > 100 µM (inactive) | > 100 µM (inactive) | > 100 µM (inactive) | > 100 µM (inactive) | > 100 µM (inactive) | > 100 µM (inactive) | > 100 µM (inactive) | > 100 µM (inactive) | > 100 µM (inactive) | > 100 µM (inactive) | > 100 µM (inactive) | > 100 µM (inactive) | > 100 µM (inactive) | > 100 µM (inactive) | > 100 µM (inactive) |
| CC(OC(=O)C(CC(=O)OC(C)(C)C)NC(=O)OC(C)(C)C)C(=O)OCc1ccccc1 (stereo not given) | > 100 µM (inactive) | > 100 µM (inactive) | > 100 µM (inactive) | > 100 | – | > 100 µM (inactive) | > 100 µM (inactive) | > 100 µM (inactive) | > 100 µM (inactive) | > 100 µM (inactive) | > 100 µM (inactive) | > 100 µM (inactive) | > 100 µM (inactive) | – | > 100 µM (inactive) | > 100 µM (inactive) | > 100 µM (inactive) | > 100 µM (inactive) | > 100 µM (inactive) | > 100 µM (inactive) |
| C=C1C(=O)C2=C[C@H]1C[C@H](O)C(=O)[C@]1(C)CCCC(C)(C)[C@H]1C[C@H]2O | 0.959 µM (active) | 1.73 µM (inactive) | 1.63 µM (inactive) | 0.406 | 1.49 µM (inactive) | 1.47 µM (inactive) | 0.916 µM (active) | 0.388 µM (active) | 1.32 µM (inactive) | 0.83 µM (active) | 2.88 µM (inactive) | 1.67 µM (inactive) | 2.02 µM (inactive) | – | 16.1 µM (inactive) | 5.58 µM (inactive) | 1.59 µM (inactive) | 1.33 µM (inactive) | 1.86 µM (inactive) | – |
| CC[C@H](C)C1=C(O)[N@+]2([O-])Oc3ccc(-c4c(O)c(O)c(-c5ccc(O)cc5)c(OC(C)=O)c4OC(C)=O)cc3O[C@]2([C@@H](C)CC)C(=O)N1O | 47.2 µM (inactive) | > 50 µM (inactive) | 10.1 µM (inactive) | 17 | 6.52 µM (inactive) | 15.7 µM (inactive) | 22.4 µM (inactive) | 18.7 µM (inactive) | > 50 µM (inactive) | 21.3 µM (inactive) | 19 µM (inactive) | 16.5 µM (inactive) | 19.8 µM (inactive) | 19 µM (inactive) | 47.3 µM (inactive) | – | 17.4 µM (inactive) | 18 µM (inactive) | > 50 µM (inactive) | – |
| Cc1ccc(C(C)C)c(OCC(=O)N/N=C/c2c[nH]c3ccc(Br)cc23)c1 | 3.42 µM (inactive) | 2.86 µM (inactive) | 3.15 µM (inactive) | 2.1 | 12.3 µM (inactive) | 2.11 µM (inactive) | 3.69 µM (inactive) | 0.45 µM (active) | 3.17 µM (inactive) | 6.3 µM (inactive) | 2.17 µM (inactive) | 1.57 µM (inactive) | 2.19 µM (inactive) | 1.38 µM (inactive) | 2.87 µM (inactive) | 2.13 µM (inactive) | 2.29 µM (inactive) | 1.72 µM (inactive) | 2.87 µM (inactive) | – |
| O=P1(C(O)c2ccccc2)N(Cc2ccccc2)[C@@H]2CCCC[C@H]2N1Cc1ccccc1 (stereo not given in full) | 20.8 µM (inactive) | 30.5 µM (inactive) | 27.4 µM (inactive) | 34.5 | – | 15 µM (inactive) | 17.5 µM (inactive) | 34.6 µM (inactive) | 21.3 µM (inactive) | 30.7 µM (inactive) | 30.2 µM (inactive) | 26.3 µM (inactive) | 31.2 µM (inactive) | 30.3 µM (inactive) | 56.2 µM (inactive) | 18.4 µM (inactive) | 30.7 µM (inactive) | 21.5 µM (inactive) | 21.4 µM (inactive) | 20 µM (inactive) |
| CC(=O)OC1OC(c2ccoc2)C[C@@]12C1CCC3O[C@]3(C)[C@]1(C)C[C@H](OC(C)=O)[C@H]2C (stereo not given in full) | > 75 µM (inactive) | > 75 µM (inactive) | > 75 µM (inactive) | > 75 | 72.8 µM (inactive) | > 75 µM (inactive) | > 75 µM (inactive) | 44.9 µM (inactive) | 45.9 µM (inactive) | – | 58.3 µM (inactive) | > 75 µM (inactive) | > 75 µM (inactive) | > 75 µM (inactive) | > 75 µM (inactive) | > 75 µM (inactive) | 51.3 µM (inactive) | > 75 µM (inactive) | > 75 µM (inactive) | > 75 µM (inactive) |
| CC(=O)OC1COC(Nc2nc(NCc3ccccc3)n(C)c(=O)c2N=O)C(OC(C)=O)C1OC(C)=O (stereo not given) | > 10 µM (inactive) | > 10 µM (inactive) | > 10 µM (inactive) | > 10 | – | > 10 µM (inactive) | > 10 µM (inactive) | > 10 µM (inactive) | > 10 µM (inactive) | > 10 µM (inactive) | > 10 µM (inactive) | > 10 µM (inactive) | > 10 µM (inactive) | > 10 µM (inactive) | > 10 µM (inactive) | > 10 µM (inactive) | > 10 µM (inactive) | > 10 µM (inactive) | > 10 µM (inactive) | > 10 µM (inactive) |
| CCOC(=O)c1cc2c3c(c(C(C)=O)c(O)c2[nH]1)N(CC(C)CC)CC3 (stereo not given) | 49.2 µM (inactive) | 38.9 µM (inactive) | 42.3 µM (inactive) | 70.3 | 45.3 µM (inactive) | > 100 µM (inactive) | 42.2 µM (inactive) | > 100 µM (inactive) | 33 µM (inactive) | 21.4 µM (inactive) | > 100 µM (inactive) | 29.6 µM (inactive) | – | – | 92 µM (inactive) | 30.7 µM (inactive) | 71.6 µM (inactive) | 70 µM (inactive) | 68.7 µM (inactive) | – |
| CC1(C)N=c2c(ncn2-c2ccccc2)=C(C(N)=O)N1 | > 100 µM (inactive) | > 100 µM (inactive) | > 100 µM (inactive) | > 100 | – | > 100 µM (inactive) | > 100 µM (inactive) | > 100 µM (inactive) | > 100 µM (inactive) | > 100 µM (inactive) | > 100 µM (inactive) | > 100 µM (inactive) | > 100 µM (inactive) | > 100 µM (inactive) | > 100 µM (inactive) | > 100 µM (inactive) | > 100 µM (inactive) | > 100 µM (inactive) | > 100 µM (inactive) | > 100 µM (inactive) |
| Cc1ccc(S(=O)(=O)NC(=O)Nc2cc(Cl)c(S(N)(=O)=O)cc2S(N)(=O)=O)cc1 | > 100 µM (inactive) | > 100 µM (inactive) | > 100 µM (inactive) | > 100 | > 100 µM (inactive) | > 100 µM (inactive) | > 100 µM (inactive) | > 100 µM (inactive) | > 100 µM (inactive) | > 100 µM (inactive) | – | > 100 µM (inactive) | > 100 µM (inactive) | > 100 µM (inactive) | > 100 µM (inactive) | > 100 µM (inactive) | > 100 µM (inactive) | 58.3 µM (inactive) | > 100 µM (inactive) | – |
| CN1CCN2CCN(C)CCN(CC1)CC2 | > 100 µM (inactive) | > 100 µM (inactive) | > 100 µM (inactive) | > 100 | > 100 µM (inactive) | > 100 µM (inactive) | > 100 µM (inactive) | > 100 µM (inactive) | > 100 µM (inactive) | – | > 100 µM (inactive) | > 100 µM (inactive) | > 100 µM (inactive) | > 100 µM (inactive) | > 100 µM (inactive) | > 100 µM (inactive) | > 100 µM (inactive) | > 100 µM (inactive) | > 100 µM (inactive) | – |
| OC1(c2ccc(Cl)cc2)C(N2CCCC2)c2ccccc2C2=NCCN21 (stereo not given) | 35.1 µM (inactive) | 26 µM (inactive) | 10.9 µM (inactive) | 21.4 | 12.6 µM (inactive) | 7.13 µM (inactive) | 18.1 µM (inactive) | 28.5 µM (inactive) | 24.3 µM (inactive) | 18.5 µM (inactive) | 24.2 µM (inactive) | 18.6 µM (inactive) | 37.2 µM (inactive) | 15.1 µM (inactive) | 54.3 µM (inactive) | – | 16.6 µM (inactive) | 18.5 µM (inactive) | 20.1 µM (inactive) | – |
